In the oligonucleotide strings, read from the 5' end, every base follows the letter of its sugar. An asterisk marks phosphorothioate; unmarked linkages are phosphodiester. Other units and linkages are bracketed, terminal groups are in braces. A string of capitals states the bases alone. d = 2'-deoxy (DNA); m = 2'-O-methyl
Biological target: T1, TLR8 (Homo sapiens, UniProt Q9NR97)
T1 sequence (Q9NR97 27-1041): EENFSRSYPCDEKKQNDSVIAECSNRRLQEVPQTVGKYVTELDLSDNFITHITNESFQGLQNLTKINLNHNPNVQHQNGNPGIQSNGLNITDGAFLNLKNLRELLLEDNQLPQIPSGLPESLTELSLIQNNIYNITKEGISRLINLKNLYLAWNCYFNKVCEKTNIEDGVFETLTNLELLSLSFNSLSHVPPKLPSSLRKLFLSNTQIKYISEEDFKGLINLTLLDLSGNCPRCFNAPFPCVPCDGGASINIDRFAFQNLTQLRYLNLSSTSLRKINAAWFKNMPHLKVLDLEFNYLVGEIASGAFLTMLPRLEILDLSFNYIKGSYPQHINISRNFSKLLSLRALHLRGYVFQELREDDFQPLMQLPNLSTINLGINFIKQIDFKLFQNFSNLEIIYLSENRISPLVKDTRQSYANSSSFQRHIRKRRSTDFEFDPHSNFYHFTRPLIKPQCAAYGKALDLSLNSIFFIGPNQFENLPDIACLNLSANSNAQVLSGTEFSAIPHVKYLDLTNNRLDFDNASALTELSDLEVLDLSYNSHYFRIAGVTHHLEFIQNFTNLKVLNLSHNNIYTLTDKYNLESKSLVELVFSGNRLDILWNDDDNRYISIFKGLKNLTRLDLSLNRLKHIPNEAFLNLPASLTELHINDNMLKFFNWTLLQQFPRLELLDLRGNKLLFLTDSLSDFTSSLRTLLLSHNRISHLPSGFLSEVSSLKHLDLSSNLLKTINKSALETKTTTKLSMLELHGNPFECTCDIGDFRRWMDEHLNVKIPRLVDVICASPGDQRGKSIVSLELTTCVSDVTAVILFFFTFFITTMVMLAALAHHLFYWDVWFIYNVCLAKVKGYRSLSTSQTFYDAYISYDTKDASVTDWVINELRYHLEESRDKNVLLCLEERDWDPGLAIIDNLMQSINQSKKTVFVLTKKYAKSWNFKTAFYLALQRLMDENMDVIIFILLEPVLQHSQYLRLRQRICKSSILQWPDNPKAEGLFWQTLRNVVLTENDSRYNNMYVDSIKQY
Experiment: HEK-TLR8 NF-κB-luciferase reporter, R848 or Motolimod stimulation (potentiation or inhibition)
Format: cell-based
Parameters: expressed in transfected cells; host or cells: 293XLhTLR8 (HEK293)
Conditions: for TLR8 100 nM (averaged NF-κB-Luciferase level relative to R848 condition, fold increase): ASO 100 nM; for TLR8 100 nM (averaged NF-κB-Luciferase level relative to R848 condition, fold increase) / TLR8 500 nM (averaged NF-κB-Luciferase level relative to R848 condition, fold increase): relative to R848 only; for TLR8 500 nM (averaged NF-κB-Luciferase level relative to R848 condition, fold increase): ASO 500 nM; for TLR8-500 nM: averaged NF-κB-Luciferase relative to R848: HEK-TLR8, 500 nM ASO, fold increase relative to R848 without ASO (Alharbi et al., 2020)

Substance | TLR8 100 nM (averaged NF-κB-Luciferase level relative to R848 condition, fold increase) | TLR8 500 nM (averaged NF-κB-Luciferase level relative to R848 condition, fold increase) | TLR8-500 nM: averaged NF-κB-Luciferase relative to R848 [fold]
CTGCAGCTTCCTTGTC (antisense; LNA-modified, pattern not given here) [CTNN2B-2136 LNA V1] | 0.478 | 0.936 | 
GTGATCTTGACATGCT (antisense; LNA-modified, pattern not given here) [EGFR-2790 LNA KL] | 0.583 | 1.806 | 
ACGTTCAGTCCTGTCC (antisense; LNA-modified, pattern not given here) [HPRT LNA-294 V1] | 0.356 | 0.493 | 
AATCCAACAAAGTCTG (antisense; LNA-modified, pattern not given here) [HPRT LNA-692 KL] | 0.591 | 1.900 | 
GAGGTCTTGGCTTCGT (antisense; LNA-modified, pattern not given here) [MB21D1-525 LNA V1] | 0.574 | 0.642 | 
GGAGGTCTTGGCTTCG (antisense; LNA-modified, pattern not given here) [MB21D1-526 LNA V1] | 0.575 | 0.882 | 
CCTCCCATCTCCTTCA (antisense; LNA-modified, pattern not given here) [HPRT LNA-326 V1] | 1.469 | 6.759 | 
mC*mA*mG*mU*mG*T*T*T*T*T*A*A*T*T*T*mU*mG*mU*mA*mG (mC*mA*mG*mU*mG*dT*dT*dT*dT*dT*dA*dA*dT*dT*dT*mU*mG*mU*mA*mG; antisense) [[CDKN2B-AS1]613] |  |  | 6.73
CCAACACTTCGTGGGG (antisense; LNA-modified, pattern not given here) [HPRT LNA-668 V1] | 0.535 | 0.835 | 
TGCTCCTCGGTCTCCC (antisense; LNA-modified, pattern not given here) [CAMSAP1-1850 LNA V1] | 1.097 | 4.771 | 
TCCATACCCAAGGCAT (antisense; LNA-modified, pattern not given here) [CTNN2B-2446 LNA V1] | 0.595 | 1.334 | 
ATGGCCTCCCATCTCC (antisense; LNA-modified, pattern not given here) [HPRT LNA-330 V1] | 0.369 | 1.356 | 
TCGTGGGGTCCTTTTC (antisense; LNA-modified, pattern not given here) [HPRT LNA-660 V1] | 0.778 | 2.966 | 
AGATTTCAGAGCAGCT (antisense; LNA-modified, pattern not given here) [EGFR-4885 LNA KL] | 0.401 | 0.770 | 
mC*mA*mG*mU*mC*T*C*C*A*T*G*T*C*C*C*mA*mG*mG*mC*mC (mC*mA*mG*mU*mC*dT*dC*dC*dA*dT*dG*dT*dC*dC*dC*mA*mG*mG*mC*mC; antisense) [[CDKN2B-AS1]2233] |  |  | 3.81
mA*mU*mU*mU*mC*C*A*C*A*T*G*C*C*C*A*mG*mU*mG*mU*mU (AUUUCCACATGCCCAGUGUU; antisense; sugars from the 5' end m5 d10 m5, all phosphorothioate, methylation of C not given here) [[CDKN2B-AS1]626] |  |  | 4.09

Source: patent publication US20240384268A1, “Oligonucleotides” (Hudson Institute of Medical Research, priority 2021, published 2024)
